Reference: patent US8916711B2, “Imidazothiazole-chalcone derivatives as potential anticancer agents and process for the preparation thereof” (Council of Scientific and Industrial Research, priority 2009, dated 2014)
Where two headings read alike, the source gives them in different places.

Key:
Assay type in all cases: cell-based
UACC-25 = assay: NCI in vitro cytotoxicity (SRB, 48 h), Melanoma panel; details: Homo sapiens; UACC-25, Melanoma; 48 h exposure
HCC-2998 = assay: NCI in vitro cytotoxicity (SRB, 48 h), Colon panel; details: Homo sapiens
SNB-19 = assay: NCI in vitro cytotoxicity (SRB, 48 h), CNS panel; details: Homo sapiens; SNB-19, CNS; 48 h exposure
PC-3 = assay: NCI in vitro cytotoxicity (SRB, 48 h), Prostate panel; details: Homo sapiens; PC-3, Prostate; 48 h exposure
T-47D = assay: NCI in vitro cytotoxicity (SRB, 48 h), Breast panel; details: Homo sapiens, T47D, 48 h exposure
A498 = assay: NCI in vitro cytotoxicity (SRB, 48 h), Renal panel; details: Homo sapiens, 48 h exposure
HL-60(TB) = assay: NCI in vitro cytotoxicity (SRB, 48 h), Leukemia panel; details: Homo sapiens, 48 h exposure
Procedure: (§1) The imidazothiazole-chalcone hybrids 7a, 7e, 7f, 8f and 19e have been tested against sixty human tumour cell lines derived from nine cancer types (leukemia, non-small cell lung cancer, colon cancer, CNS cancer, melanoma, ovarian cancer, renal cancer, prostate cancer and breast cancer) as per NCI protocol. For each compound, dose response curves for individual cell lines have been measured at a minimum of five concentrations at 10 fold dilutions. A protocol of 48 h continuous drug exposure has been used, and a sulforhodamine B (SRB) protein assay was used to estimate cell viability or growth. The concentration for 50% cell growth inhibition (GI50), total cell growth inhibition (TGI, 0% growth) and 50% cell death (LC50, […]) compared with the control has been calculated (Table-1).

SR = assay: as above; details: Homo sapiens
Procedure: as §1

NCI-H522 = assay: NCI in vitro cytotoxicity (SRB, 48 h), Non-small cell lung panel; details: Homo sapiens, 48 h exposure
NCI-H322M = assay: as above; details: Homo sapiens, 48 h exposure
UO-31 = assay: NCI in vitro cytotoxicity (SRB, 48 h), Renal panel; details: Homo sapiens; UO-31, Renal; 48 h exposure
Colon cancer cell lines = assay: NCI in vitro cytotoxicity, whole panel; details: Homo sapiens; for CC50: read-out: Log10 LC50 (converted)
Leukemia cell lines = assay: NCI in vitro cytotoxicity, whole panel; details: Homo sapiens; for CC50: read-out: Log10 LC50 (converted)
KM12 = assay: NCI in vitro cytotoxicity (SRB, 48 h), Colon panel; details: Homo sapiens, 48 h exposure
HOP-92 = assay: NCI in vitro cytotoxicity (SRB, 48 h), Non-small cell lung panel; details: Homo sapiens
OVCAR-4 = assay: NCI in vitro cytotoxicity (SRB, 48 h), Ovarian panel; details: Homo sapiens; OVCAR-4, Ovarian; 48 h exposure
UACC-62 = assay: NCI in vitro cytotoxicity (SRB, 48 h), Melanoma panel; details: Homo sapiens; UACC-62, Melanoma; 48 h exposure
MCF7 = assay: NCI in vitro cytotoxicity (SRB, 48 h), Breast panel; details: Homo sapiens; for IC50: MCF7, MCF-7, Table 4, read-out: Comparative efficacy; for GI50: MCF7, Breast, 48 h exposure
Procedure: as §1

MDA-MB-231/ATCC = assay: as above; details: Homo sapiens; for GI50: Breast, 48 h exposure; for IC50: Table 4, read-out: Comparative efficacy
Procedure: as §1

SK-MEL-2 = assay: NCI in vitro cytotoxicity (SRB, 48 h), Melanoma panel; details: Homo sapiens; SK-MEL-2, Melanoma; 48 h exposure
RXF 393 = assay: NCI in vitro cytotoxicity (SRB, 48 h), Renal panel; details: Homo sapiens; RXF 393, Renal; 48 h exposure
HT29 = assay: NCI in vitro cytotoxicity (SRB, 48 h), Colon panel; details: Homo sapiens, HT-29, 48 h exposure
[1] = system: sixty human tumour cell lines; assay: NCI in vitro cytotoxicity, all panels; details: for CC50: read-out: Log10 LC50 mean graph midpoint (MG_MID) (converted)
BT-549 = assay: NCI in vitro cytotoxicity (SRB, 48 h), Breast panel; details: Homo sapiens; BT-549, Breast; 48 h exposure
SW-620 = assay: NCI in vitro cytotoxicity (SRB, 48 h), Colon panel; details: Homo sapiens; SW-620, Colon; 48 h exposure
DU-145 = assay: NCI in vitro cytotoxicity (SRB, 48 h), Prostate panel; details: Homo sapiens; DU-145, Prostate; 48 h exposure
CNS cancer cell lines = assay: NCI in vitro cytotoxicity, whole panel; details: Homo sapiens; for CC50: read-out: Log10 LC50 (converted)
MALME-3M = assay: NCI in vitro cytotoxicity (SRB, 48 h), Melanoma panel; details: Homo sapiens, 48 h exposure
SK-MEL-5 = assay: as above; details: Homo sapiens; SK-MEL-5, Melanoma; 48 h exposure
EKVX = assay: NCI in vitro cytotoxicity (SRB, 48 h), Non-small cell lung panel; details: Homo sapiens, 48 h exposure
SN12C = assay: NCI in vitro cytotoxicity (SRB, 48 h), Renal panel; details: Homo sapiens, 48 h exposure
SK-OV-3 = assay: NCI in vitro cytotoxicity (SRB, 48 h), Ovarian panel; details: Homo sapiens; SK-OV-3, Ovarian; 48 h exposure
NCI/ADR-RES = assay: as above; details: Homo sapiens, 48 h exposure
MDA-MB-468 = assay: NCI in vitro cytotoxicity (SRB, 48 h), Breast panel; details: Homo sapiens; MDA-MB-468, Breast; 48 h exposure
[2] = Colon, average of six to eight cell lines, read-out: Log10 GI50 (converted)
[3] = Colon, average of six to eight cell lines
[4] = exposure period of at least 48 hrs, read-out: GI50, range over colon cell lines
[5] = Leukemia, average of six to eight cell lines, read-out: Log10 GI50 (converted)
[6] = Leukemia, average of six to eight cell lines
[7] = exposure period of at least 48 hrs, read-out: GI50, range over leukemia cell lines
[8] = HOP-92, Non-small cell lung, 48 h exposure
[9] = Homo sapiens, sixty cell lines, nine panels, read-out: GI50 against sixty cell lines in nine cell panels
[10] = human tumour cell lines, read-out: Log10 GI50 mean graph midpoint (MG_MID) (converted)
[11] = CNS cell, exposure period of at least 48 hrs, read-out: GI50, range over CNS cell lines
[12] = CNS, average of six to eight cell lines, read-out: Log10 GI50 (converted)
[13] = CNS, average of six to eight cell lines

## COc1cc(C(=O)/C=C/c2c(C(F)(F)F)nc3sccn23)cc(OC)c1OC [Compound 7f, (E)-3-(6-(trifluoromethyl)imidazo[2,1-b]thiazol-5-yl)-1-(3,4,5-trimethoxyphenyl)prop-2-en-1-one]
UACC-25
  GI50: 1.9 µM
HCC-2998; HCC-2998, Colon, 48 h exposure
  GI50: 1.71 µM
HCC-2998; HCC-2998, colon
  GI50: 1.71 µM
SNB-19
  GI50: 2.67 µM
PC-3
  GI50: 2660 nM
T-47D
  GI50: 2120 nM
A498
  GI50: 1.89 µM
HL-60(TB)
  GI50: 1830 nM
SR
  GI50: 540 nM
SR; 48 h exposure
  GI50: 540 nM
NCI-H522
  GI50: 2030 nM
NCI-H322M
  GI50: 1.96 µM
UO-31
  GI50: 1870 nM
Colon cancer cell lines; [2]
  GI50: 1620 nM
Colon cancer cell lines; [3]
  CC50: 8.51 µM
Colon cancer cell lines; [4]
  GI50: 1010 to 1940 nM
Leukemia cell lines; [5]
  GI50: 1290 nM
Leukemia cell lines; [6]
  CC50: ≥ 100 µM
Leukemia cell lines; [7]
  GI50: 540 to 1920 nM
KM12
  GI50: 1470 nM
HOP-92; [8]
  GI50: 7000 nM
OVCAR-4
  GI50: 3.05 µM
UACC-62
  GI50: 1520 nM
MCF7
  IC50: 1250 nM
  GI50: 1250 nM
MDA-MB-231/ATCC
  GI50: 2.92 µM
  IC50: 2920 nM
SK-MEL-2
  GI50: 2.26 µM
RXF 393
  GI50: 2020 nM
HT29
  GI50: 1830 nM
[1]; [9]
  GI50: < 9 µM
[1]; human tumour cell lines
  Log10 TGI mean graph midpoint (MG_MID): −5.28
  in vitro cytotoxicity, in words: significant cytotoxicity
  CC50: 19.1 µM
[1]; [10]
  GI50: 1.91 µM
BT-549
  GI50: 2.26 µM
SW-620
  GI50: 1670 nM
DU-145
  GI50: 1410 nM
CNS cancer cell lines; [11]
  GI50: 1.38 to 2.67 µM
CNS cancer cell lines; [12]
  GI50: 1.91 µM
CNS cancer cell lines; [13]
  CC50: 12.6 µM
MALME-3M
  GI50: 1590 nM
SK-MEL-5
  GI50: 1590 nM
EKVX
  GI50: 2720 nM
SN12C
  GI50: 1560 nM
SK-OV-3
  GI50: 2.87 µM

## COc1ccc(C(=O)/C=C/c2c(C(F)(F)F)nc3sccn23)cc1OC [Compound 8f, (E)-1-(3,4-dimethoxyphenyl)-3-(6-(trifluoromethyl)imidazo[2,1-b]thiazol-5-yl) prop-2-en-1-one]
UACC-25
  GI50: 7.77 µM
HCC-2998; HCC-2998, Colon, 48 h exposure
  GI50: 5.07 µM
SNB-19
  GI50: 4.25 µM
PC-3
  GI50: 5390 nM
T-47D
  GI50: 2900 nM
A498
  GI50: 7.58 µM
HL-60(TB)
  GI50: 1000 nM
SR
  GI50: 490 nM
SR; 48 h exposure
  GI50: 490 nM
NCI-H522
  GI50: 2910 nM
NCI/ADR-RES
  GI50: 1880 nM
NCI-H322M
  GI50: 3.17 µM
UO-31
  GI50: 8470 nM
Colon cancer cell lines; [2]
  GI50: 2450 nM
Colon cancer cell lines; [3]
  CC50: ≥ 100 µM
Colon cancer cell lines; [4]
  GI50: 1400 to 4560 nM
Leukemia cell lines; [5]
  GI50: 1480 nM
Leukemia cell lines; [6]
  CC50: ≥ 100 µM
Leukemia cell lines; [7]
  GI50: 490 to 2330 nM
KM12
  GI50: 1970 nM
MDA-MB-468
  GI50: 6.18 µM
HOP-92; [8]
  GI50: 5800 nM
OVCAR-4
  GI50: 4.08 µM
UACC-62
  GI50: 4850 nM
MCF7
  IC50: 760 nM
  GI50: 760 nM
MDA-MB-231/ATCC
  GI50: 5.91 µM
  IC50: 760 nM
SK-MEL-2
  GI50: 4.08 µM
RXF 393
  GI50: 2510 nM
HT29
  GI50: 2010 nM
[1]; [9]
  GI50: < 9 µM
[1]; human tumour cell lines
  Log10 TGI mean graph midpoint (MG_MID): −4.22
  in vitro cytotoxicity, in words: significant cytotoxicity
  CC50: 100 µM
[1]; [10]
  GI50: 3.09 µM
BT-549
  GI50: 3.25 µM
SW-620
  GI50: 1490 nM
DU-145
  GI50: 1640 nM
CNS cancer cell lines; [11]
  GI50: 1.87 to 6.87 µM
CNS cancer cell lines; [12]
  GI50: 3.39 µM
CNS cancer cell lines; [13]
  CC50: ≥ 100 µM
MALME-3M
  GI50: 5920 nM
SK-MEL-5
  GI50: 4200 nM
EKVX
  GI50: 4430 nM
SN12C
  GI50: 2980 nM
SK-OV-3
  GI50: 3.41 µM

## COc1cc(C(=O)/C=C/c2c(-c3ccc(F)cc3)nc3sc(C)cn23)cc(OC)c1OC [Compound 19e, (E)-3-(6-(4-fluorophenyl)-2-methylimidazo[2,1-b]thiazol-5-yl)-1-(3,4,5-trimethoxyphenyl)prop-2-en-1-one]
UACC-25
  GI50: 4.75 µM
HCC-2998; HCC-2998, Colon, 48 h exposure
  GI50: 9.93 µM
SNB-19
  GI50: 87.8 µM
PC-3
  GI50: 2410 nM
T-47D
  GI50: 2930 nM
HL-60(TB)
  GI50: 2800 nM
SR; 48 h exposure
  GI50: 800 nM
NCI-H522
  GI50: 2960 nM
NCI/ADR-RES
  GI50: 2630 nM
NCI-H322M
  GI50: 8.65 µM
UO-31
  GI50: 2950 nM
Colon cancer cell lines; [2]
  GI50: 5010 nM
Colon cancer cell lines; [3]
  CC50: ≥ 100 µM
Colon cancer cell lines; [4]
  GI50: 2920 to 9930 nM
Leukemia cell lines; [5]
  GI50: 2690 nM
Leukemia cell lines; [6]
  CC50: ≥ 100 µM
Leukemia cell lines; [7]
  GI50: 800 to 7190 nM
KM12
  GI50: 3630 nM
MDA-MB-468
  GI50: 2.38 µM
HOP-92; [8]
  GI50: 150 nM
HOP-92; HOP-92, non-small cell lung
  GI50: 150 nM
OVCAR-4
  GI50: 2.28 µM
UACC-62
  GI50: 2910 nM
MCF7
  GI50: 1810 nM
MDA-MB-231/ATCC
  GI50: 5.38 µM
SK-MEL-2
  GI50: 5.75 µM
RXF 393
  GI50: 5750 nM
HT29
  GI50: 6960 nM
[1]; [9]
  GI50: < 9 µM
[1]; human tumour cell lines
  Log10 TGI mean graph midpoint (MG_MID): −4.14
  in vitro cytotoxicity, in words: significant cytotoxicity
  CC50: 95.5 µM
[1]; [10]
  GI50: 4.79 µM
BT-549
  GI50: 3.75 µM
SW-620
  GI50: 5340 nM
DU-145
  GI50: 7520 nM
CNS cancer cell lines; [11]
  GI50: 2.33 to 87.8 µM
CNS cancer cell lines; [12]
  GI50: 12.6 µM
CNS cancer cell lines; [13]
  CC50: ≥ 100 µM
MALME-3M
  GI50: 2690 nM
SK-MEL-5
  GI50: 510 nM
EKVX
  GI50: 2290 nM
SN12C
  GI50: 9010 nM
SK-OV-3
  GI50: 6.12 µM
